Results published in article PMC5788574 (The Journal of comparative neurology, 2017).

Columns and labels:
[1] = ref Kimes et al., 2003; cited from earlier work
hα4β2 nAChR = hα4β2 nAChR (Homo sapiens, UniProt P17787+P43681); format: binding; conditions: read-out: Ki α4β2; human cloned receptors, 3H-epibatidine
hα3β2 nAChR = hα3β2 nAChR (Homo sapiens, UniProt P17787+P32297); format: binding
hα2β2 nAChR = hα2β2 nAChR (Homo sapiens, UniProt P17787+Q15822); assay: biochemical; format: binding
nAChR α4β4 = nAChR α4β4 (Homo sapiens, UniProt P30926+P43681); format: binding
Chain of nAChR α4β4 (P43681 29-627): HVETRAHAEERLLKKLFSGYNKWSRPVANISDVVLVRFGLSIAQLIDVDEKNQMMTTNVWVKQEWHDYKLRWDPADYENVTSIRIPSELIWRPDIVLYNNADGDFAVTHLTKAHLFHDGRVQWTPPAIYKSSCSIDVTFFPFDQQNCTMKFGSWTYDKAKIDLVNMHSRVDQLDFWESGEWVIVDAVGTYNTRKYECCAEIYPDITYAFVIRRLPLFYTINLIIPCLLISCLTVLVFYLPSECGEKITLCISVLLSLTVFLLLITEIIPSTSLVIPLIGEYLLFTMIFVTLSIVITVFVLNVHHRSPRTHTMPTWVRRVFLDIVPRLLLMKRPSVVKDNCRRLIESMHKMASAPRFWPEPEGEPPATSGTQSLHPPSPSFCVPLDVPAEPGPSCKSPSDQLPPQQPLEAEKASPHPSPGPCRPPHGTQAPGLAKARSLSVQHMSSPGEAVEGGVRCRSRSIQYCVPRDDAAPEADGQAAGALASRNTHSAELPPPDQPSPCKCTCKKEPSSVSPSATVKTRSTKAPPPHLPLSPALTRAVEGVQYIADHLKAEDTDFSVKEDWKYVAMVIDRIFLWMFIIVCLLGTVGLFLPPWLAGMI
Chain of nAChR α4β4 (P30926 22-498): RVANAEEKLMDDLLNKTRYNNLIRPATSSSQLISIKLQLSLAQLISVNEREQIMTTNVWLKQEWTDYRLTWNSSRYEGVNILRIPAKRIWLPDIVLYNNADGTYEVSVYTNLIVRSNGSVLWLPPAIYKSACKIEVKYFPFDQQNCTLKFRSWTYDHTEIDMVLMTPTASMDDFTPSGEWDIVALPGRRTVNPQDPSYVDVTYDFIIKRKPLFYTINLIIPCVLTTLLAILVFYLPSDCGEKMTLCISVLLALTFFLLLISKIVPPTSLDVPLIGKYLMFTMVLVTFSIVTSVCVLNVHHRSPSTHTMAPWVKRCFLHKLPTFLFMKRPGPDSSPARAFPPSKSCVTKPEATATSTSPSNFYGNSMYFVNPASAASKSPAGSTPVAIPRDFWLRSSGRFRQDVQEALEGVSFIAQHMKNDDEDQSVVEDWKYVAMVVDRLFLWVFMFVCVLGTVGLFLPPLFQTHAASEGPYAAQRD

nAChR α3β4 = nAChR α3β4 (Homo sapiens, UniProt P30926+P32297); format: binding
Chain of nAChR α3β4 (P32297 32-505): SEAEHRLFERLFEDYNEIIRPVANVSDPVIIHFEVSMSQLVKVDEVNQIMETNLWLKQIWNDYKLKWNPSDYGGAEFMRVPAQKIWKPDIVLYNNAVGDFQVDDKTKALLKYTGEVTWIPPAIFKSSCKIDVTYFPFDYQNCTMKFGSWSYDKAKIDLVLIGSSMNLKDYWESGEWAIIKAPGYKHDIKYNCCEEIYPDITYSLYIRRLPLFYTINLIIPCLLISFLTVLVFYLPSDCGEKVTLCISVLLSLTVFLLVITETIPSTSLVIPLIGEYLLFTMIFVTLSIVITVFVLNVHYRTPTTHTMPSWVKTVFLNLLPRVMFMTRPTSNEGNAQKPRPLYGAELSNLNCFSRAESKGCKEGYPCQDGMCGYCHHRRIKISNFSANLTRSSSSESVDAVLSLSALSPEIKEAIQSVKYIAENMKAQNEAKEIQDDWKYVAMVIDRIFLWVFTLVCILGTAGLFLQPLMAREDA
Chain of nAChR α3β4 (P30926 22-498): as the sequence (P30926 22-498) above

nAChR α2β4 = nAChR α2β4 (Homo sapiens, UniProt P30926+Q15822); assay: biochemical; format: binding
Chain of nAChR α2β4 (Q15822 27-529): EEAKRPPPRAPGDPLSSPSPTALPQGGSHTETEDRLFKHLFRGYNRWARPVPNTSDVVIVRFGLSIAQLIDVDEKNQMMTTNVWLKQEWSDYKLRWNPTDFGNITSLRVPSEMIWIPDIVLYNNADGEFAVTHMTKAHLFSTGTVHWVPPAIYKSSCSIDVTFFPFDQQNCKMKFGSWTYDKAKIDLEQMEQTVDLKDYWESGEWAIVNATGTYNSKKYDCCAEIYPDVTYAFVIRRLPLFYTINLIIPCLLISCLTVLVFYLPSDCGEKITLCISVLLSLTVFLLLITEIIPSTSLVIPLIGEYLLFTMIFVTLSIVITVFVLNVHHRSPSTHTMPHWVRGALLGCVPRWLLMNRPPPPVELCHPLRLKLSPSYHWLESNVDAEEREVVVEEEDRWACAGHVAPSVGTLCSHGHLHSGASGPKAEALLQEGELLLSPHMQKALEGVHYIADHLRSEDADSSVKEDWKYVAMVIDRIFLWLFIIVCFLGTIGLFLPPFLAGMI
Chain of nAChR α2β4 (P30926 22-498): as the sequence (P30926 22-498) above

α7 nAChR = α7 nAChR (Rattus norvegicus, UniProt Q05941); format: binding; conditions: read-out: Ki α7; rat cloned receptors labeled with 125I-α-bungarotoxin
Chain of α7 nAChR (Q05941 23-502): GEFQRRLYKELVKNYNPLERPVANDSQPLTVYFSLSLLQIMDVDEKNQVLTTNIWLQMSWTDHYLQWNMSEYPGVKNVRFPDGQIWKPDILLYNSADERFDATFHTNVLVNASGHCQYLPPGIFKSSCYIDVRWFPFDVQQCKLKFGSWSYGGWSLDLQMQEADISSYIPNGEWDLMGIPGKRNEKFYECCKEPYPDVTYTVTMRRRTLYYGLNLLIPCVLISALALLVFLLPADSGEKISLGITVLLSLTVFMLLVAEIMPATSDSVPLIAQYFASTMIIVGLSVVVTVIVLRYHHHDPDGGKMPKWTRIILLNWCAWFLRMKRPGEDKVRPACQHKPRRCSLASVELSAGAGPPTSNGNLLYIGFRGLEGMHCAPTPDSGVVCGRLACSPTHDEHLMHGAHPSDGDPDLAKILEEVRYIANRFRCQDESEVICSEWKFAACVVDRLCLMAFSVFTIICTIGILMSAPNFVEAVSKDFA

[2] = test system: all other receptor subtypes tested; assay: PDSP screen of other receptor subtypes at 10 μM; format: binding, human; conditions: significant inhibition >50%
human α4β2 nAChR = assay: [86Rb+]rubidium efflux functional assay, YXα4β2H1 cells; format: cell-based; conditions: for As Antagonist, α4β2 nAChR, inhibition of nicotine-stimulated 86Rb+ efflux: vs 100 μM nicotine
human α3β4 nAChR = assay: [86Rb+]rubidium efflux functional assay, YXα3β4H1 cells; format: cell-based; conditions: for As Antagonist, α3β4 nAChR, inhibition of nicotine-stimulated 86Rb+ efflux: vs 100 μM nicotine
[3] = Expanded acute toxicity study, intravenous, rats; format: in vivo, Sprague-Dawley rats
hβ4 nAChR subtypes = format: binding, human; conditions: read-out: Affinity for hβ4 nAChR subtypes; range over α4β4, α3β4, α2β4
[4] = [α4β2 affinity/other receptor affinity]×100, human α4β2 affinities
[5] = 100 μM, 100 μM nicotine as 100%

Chain of hα2β2 nAChR (Q15822 27-529): as the sequence (Q15822 27-529) above
Chain of hα2β2 nAChR (P17787 26-502): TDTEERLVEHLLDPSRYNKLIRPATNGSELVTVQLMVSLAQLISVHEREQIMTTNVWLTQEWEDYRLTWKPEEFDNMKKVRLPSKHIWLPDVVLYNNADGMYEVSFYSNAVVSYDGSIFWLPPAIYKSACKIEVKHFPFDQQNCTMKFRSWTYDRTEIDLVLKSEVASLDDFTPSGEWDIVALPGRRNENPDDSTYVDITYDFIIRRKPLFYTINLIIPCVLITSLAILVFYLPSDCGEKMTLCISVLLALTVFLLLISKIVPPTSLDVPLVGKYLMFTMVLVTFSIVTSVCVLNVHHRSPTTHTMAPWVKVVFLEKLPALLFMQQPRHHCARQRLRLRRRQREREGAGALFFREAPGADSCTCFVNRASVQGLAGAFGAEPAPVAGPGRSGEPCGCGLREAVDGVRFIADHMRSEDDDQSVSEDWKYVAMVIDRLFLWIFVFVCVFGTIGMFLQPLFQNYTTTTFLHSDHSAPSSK
Chain of hα3β2 nAChR (P17787 26-502): as above
Chain of hα3β2 nAChR (P32297 32-505): as the sequence (P32297 32-505) above
Chain of hα4β2 nAChR (P17787 26-502): as the sequence (P17787 26-502) above
Chain of hα4β2 nAChR (P43681 27-627): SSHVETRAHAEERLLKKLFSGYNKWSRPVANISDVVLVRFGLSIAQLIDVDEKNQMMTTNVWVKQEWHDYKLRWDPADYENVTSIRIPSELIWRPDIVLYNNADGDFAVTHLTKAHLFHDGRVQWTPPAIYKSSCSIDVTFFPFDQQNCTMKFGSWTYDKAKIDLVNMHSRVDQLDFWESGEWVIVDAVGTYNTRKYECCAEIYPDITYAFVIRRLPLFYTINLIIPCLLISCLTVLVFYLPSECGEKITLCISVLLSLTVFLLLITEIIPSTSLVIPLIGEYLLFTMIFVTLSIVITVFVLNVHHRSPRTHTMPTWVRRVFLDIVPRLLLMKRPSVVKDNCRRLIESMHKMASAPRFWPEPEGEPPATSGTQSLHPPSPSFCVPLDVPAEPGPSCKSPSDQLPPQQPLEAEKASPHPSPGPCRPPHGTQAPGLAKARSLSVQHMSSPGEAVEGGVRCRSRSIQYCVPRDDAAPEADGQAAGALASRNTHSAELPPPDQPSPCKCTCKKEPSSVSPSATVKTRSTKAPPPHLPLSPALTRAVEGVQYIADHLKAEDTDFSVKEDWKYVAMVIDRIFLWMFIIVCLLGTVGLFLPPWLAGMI

Fc1ncccc1OC[C@@H]1CCN1 [[^18F]2-FA-85380, 2-fluoro-3-(2(S)-azetidinylmethoxy)pyridine]
Dose with no adverse effects [1]: up to 10 pmol/kg

Fc1ncccc1OC[C@@H]1C=CCN1 [Nifene]
Ki (hα4β2 nAChR): 0.00083 µM | % human α4β2 Selectivity, α3β2 (hα3β2 nAChR; [4]): 104% | Ki (hα3β2 nAChR; read-out: Ki α3β2, human cloned receptors, 3H-epibatidine): 0.0008 µM | Fold higher affinity for α2β2 compared to α3β2 and α4β2 subtypes (hα2β2 nAChR): approximately 5 fold | % human α4β2 Selectivity, α2β2 (hα2β2 nAChR; [4]): 244% | Ki (hα2β2 nAChR; read-out: Ki α2β2, human cloned receptors, 3H-epibatidine): 0.00034 µM | % human α4β2 Selectivity, α4β4 (nAChR α4β4; [4]): 3.05% | Ki (nAChR α4β4; read-out: Ki α4β4, human cloned receptors, 3H-epibatidine): 0.0272 µM | % human α4β2 Selectivity, α3β4 (nAChR α3β4; [4]): 0.44% | Ki (nAChR α3β4; read-out: Ki α3β4, human cloned receptors, 3H-epibatidine): 0.19 µM | % human α4β2 Selectivity, α2β4 (nAChR α2β4; [4]): 1.58% | Ki (nAChR α2β4; read-out: Ki α2β4, human cloned receptors, 3H-epibatidine): 0.0524 µM | Ki (α7 nAChR): 0.169 µM | Affinity at all other receptor subtypes tested [2]: did not exhibit significant affinity | As Antagonist, α4β2 nAChR, inhibition of nicotine-stimulated 86Rb+ efflux (human α4β2 nAChR; 1 μM): 18% | As Antagonist, α4β2 nAChR, inhibition of nicotine-stimulated 86Rb+ efflux (human α4β2 nAChR; 10 μM): 21% | As Agonist, α4β2 nAChR, stimulated 86Rb+ efflux (human α4β2 nAChR; [5]): 14% | As Antagonist, α4β2 nAChR, inhibition of nicotine-stimulated 86Rb+ efflux (human α4β2 nAChR; 100 μM): 56% | As Antagonist, α3β4 nAChR, inhibition of nicotine-stimulated 86Rb+ efflux (human α3β4 nAChR; 1 μM): 9% | As Antagonist, α3β4 nAChR, inhibition of nicotine-stimulated 86Rb+ efflux (human α3β4 nAChR; 10 μM): 16% | As Agonist, α3β4 nAChR, stimulated 86Rb+ efflux (human α3β4 nAChR; [5]): 35% | As Antagonist, α3β4 nAChR, inhibition of nicotine-stimulated 86Rb+ efflux (human α3β4 nAChR; 100 μM): 59% | Tolerability of intravenous injections ([3]; Sprague-Dawley male and female rats, 1.6, 20 and 40 μg/kg/day): well tolerated | Morbidity or mortality ([3]; rats, up to 40 μg/kg/day i.v.): no morbidity or mortality | Ki (hβ4 nAChR subtypes): 0.027 to 0.219 µM
